PubChem BioAssay (NCI)
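48-hour exposure; five concentrations; linearly interpolated endpoints. At the GI50, growth is halved. At the TGI there is no net growth.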

What was measured:
Assay in all cases: DTP human tumour cell line panel, 48 h
UACC-62 melanoma = test system: UACC-62 melanoma
BT-549 breast = test system: BT-549 breast
TK-10 renal = test system: TK-10 renal
SNB-75 CNS = test system: SNB-75 CNS
MCF7 breast = test system: MCF7 breast
K-562 leukemia = test system: K-562 leukemia
OVCAR-4 ovarian = test system: OVCAR-4 ovarian
SK-OV-3 ovarian = test system: SK-OV-3 ovarian
OVCAR-3 ovarian = test system: OVCAR-3 ovarian
T-47D breast = test system: T-47D breast
SK-MEL-2 melanoma = test system: SK-MEL-2 melanoma
MDA-MB-435 = test system: MDA-MB-435
M14 melanoma = test system: M14 melanoma
NCI-H522 lung = test system: NCI-H522 lung
SNB-19 CNS = test system: SNB-19 CNS
MDA-N = test system: MDA-N
SF-539 CNS = test system: SF-539 CNS
NCI-H23 lung = test system: NCI-H23 lung
OVCAR-5 ovarian = test system: OVCAR-5 ovarian
CCRF-CEM leukemia = test system: CCRF-CEM leukemia
MDA-MB-231 breast = test system: MDA-MB-231 breast
NCI-H226 lung = test system: NCI-H226 lung
CAKI-1 renal = test system: CAKI-1 renal
SK-MEL-5 melanoma = test system: SK-MEL-5 melanoma
UACC-257 melanoma = test system: UACC-257 melanoma
MOLT-4 leukemia = test system: MOLT-4 leukemia
HT29 colon = test system: HT29 colon
MALME-3M melanoma = test system: MALME-3M melanoma
SK-MEL-28 melanoma = test system: SK-MEL-28 melanoma
HS 578T breast = test system: HS 578T breast
NCI-H460 lung = test system: NCI-H460 lung
SF-268 CNS = test system: SF-268 CNS
A549 NSCLC = test system: A549 NSCLC
UO-31 renal = test system: UO-31 renal
HCC-2998 colon = test system: HCC-2998 colon
IGROV1 ovarian = test system: IGROV1 ovarian
KM12 colon = test system: KM12 colon
RXF 393 renal = test system: RXF 393 renal
DU-145 prostate = test system: DU-145 prostate
EKVX NSCLC = test system: EKVX NSCLC
SN12C renal = test system: SN12C renal
NCI/ADR-RES ovarian = test system: NCI/ADR-RES ovarian
HCT-15 colon = test system: HCT-15 colon
HOP-92 NSCLC = test system: HOP-92 NSCLC
LOX IMVI melanoma = test system: LOX IMVI melanoma
RPMI-8226 leukemia = test system: RPMI-8226 leukemia
A498 renal = test system: A498 renal
HCT-116 colon = test system: HCT-116 colon
SW-620 colon = test system: SW-620 colon
OVCAR-8 ovarian = test system: OVCAR-8 ovarian
SF-295 CNS = test system: SF-295 CNS
U251 CNS = test system: U251 CNS
COLO 205 colon = test system: COLO 205 colon
ACHN renal = test system: ACHN renal
PC-3 prostate = test system: PC-3 prostate
HOP-62 NSCLC = test system: HOP-62 NSCLC

SMILES: C[C@H]1CCC/C=C/[C@@H]2C[C@H](O)C[C@H]2[C@H](O)[C@@H](S(=O)CCN)CC(=O)O1 (stereo partly specified)
- GI50 (UACC-62 melanoma): 19.7 nM
- TGI (UACC-62 melanoma): > 82000 nM
- GI50 (BT-549 breast): 37.7 nM
- TGI (BT-549 breast): > 100000 nM
- GI50 (TK-10 renal): 85.1 nM
- TGI (TK-10 renal): 4190 nM
- GI50 (SNB-75 CNS): < 23.1 nM
- TGI (SNB-75 CNS): > 25100 nM
- GI50 (MCF7 breast): 31.6 nM
- GI50 (K-562 leukemia): 132 nM
- TGI (K-562 leukemia): > 100000 nM
- GI50 (OVCAR-4 ovarian): < 27.3 nM
- GI50 (SK-OV-3 ovarian): 24.5 nM
- GI50 (OVCAR-3 ovarian): 49.5 nM
- GI50 (T-47D breast): 116 nM
- TGI (T-47D breast): 544 nM
- GI50 (SK-MEL-2 melanoma): 111 nM
- GI50 (MDA-MB-435): 51.3 nM
- TGI (MDA-MB-435): > 92800 nM
- GI50 (M14 melanoma): 29.4 nM
- GI50 (NCI-H522 lung): 98.6 nM
- TGI (NCI-H522 lung): 926 nM
- GI50 (SNB-19 CNS): 210 nM
- TGI (SNB-19 CNS): > 100000 nM
- GI50 (MDA-N): 50.5 nM
- TGI (MDA-N): 5500 nM
- GI50 (SF-539 CNS): < 17.6 nM
- GI50 (NCI-H23 lung): 44 nM
- TGI (NCI-H23 lung): 1740 nM
- GI50 (OVCAR-5 ovarian): 47.9 nM
- GI50 (CCRF-CEM leukemia): 72.9 nM
- GI50 (MDA-MB-231 breast): 23.4 nM
- TGI (MDA-MB-231 breast): 61.3 nM
- GI50 (NCI-H226 lung): 41 nM
- TGI (NCI-H226 lung): 199 nM
- GI50 (CAKI-1 renal): 97.9 nM
- GI50 (SK-MEL-5 melanoma): 15 nM
- TGI (SK-MEL-5 melanoma): 29.5 nM
- GI50 (UACC-257 melanoma): < 23.4 nM
- TGI (UACC-257 melanoma): > 100000 nM
- GI50 (MOLT-4 leukemia): 94.7 nM
- GI50 (HT29 colon): < 15.8 nM
- TGI (HT29 colon): 37.8 nM
- GI50 (MALME-3M melanoma): < 13.8 nM
- TGI (MALME-3M melanoma): 382 nM
- GI50 (SK-MEL-28 melanoma): 47.5 nM
- TGI (SK-MEL-28 melanoma): > 100000 nM
- GI50 (HS 578T breast): 207 nM
- TGI (HS 578T breast): > 100000 nM
- GI50 (NCI-H460 lung): 11.9 nM
- TGI (NCI-H460 lung): 74.3 nM
- TGI (SF-268 CNS): > 100000 nM
- GI50 (A549 NSCLC): 40.2 nM
- TGI (A549 NSCLC): > 100000 nM
- GI50 (UO-31 renal): 26.9 nM
- TGI (UO-31 renal): 446 nM
- GI50 (HCC-2998 colon): 252 nM
- TGI (HCC-2998 colon): 22300 nM
- GI50 (IGROV1 ovarian): 166 nM
- GI50 (KM12 colon): < 13.9 nM
- GI50 (RXF 393 renal): < 14.1 nM
- TGI (RXF 393 renal): 45.6 nM
- GI50 (DU-145 prostate): 163 nM
- TGI (DU-145 prostate): 552 nM
- GI50 (EKVX NSCLC): 89.1 nM
- TGI (EKVX NSCLC): > 100000 nM
- GI50 (SN12C renal): 85 nM
- TGI (SN12C renal): 472 nM
- GI50 (NCI/ADR-RES ovarian): 19.6 nM
- TGI (NCI/ADR-RES ovarian): 137 nM
- GI50 (HCT-15 colon): 280 nM
- TGI (HCT-15 colon): 10800 nM
- GI50 (HOP-92 NSCLC): 274 nM
- TGI (HOP-92 NSCLC): > 100000 nM
- GI50 (LOX IMVI melanoma): 31 nM
- TGI (LOX IMVI melanoma): 101 nM
- GI50 (RPMI-8226 leukemia): 294 nM
- TGI (RPMI-8226 leukemia): 2710 nM
- GI50 (A498 renal): 32.2 nM
- TGI (A498 renal): 126 nM
- GI50 (HCT-116 colon): 56.9 nM
- TGI (HCT-116 colon): 169 nM
- GI50 (SW-620 colon): 57.6 nM
- GI50 (OVCAR-8 ovarian): < 18.1 nM
- TGI (OVCAR-8 ovarian): 154 nM
- GI50 (SF-295 CNS): 117 nM
- TGI (SF-295 CNS): > 100000 nM
- GI50 (U251 CNS): 53.8 nM
- TGI (U251 CNS): > 100000 nM
- GI50 (COLO 205 colon): < 15.6 nM
- TGI (COLO 205 colon): 43.6 nM
- GI50 (ACHN renal): 121 nM
- TGI (ACHN renal): 2840 nM
- GI50 (PC-3 prostate): 44.2 nM
- GI50 (HOP-62 NSCLC): 130 nM
- TGI (HOP-62 NSCLC): > 58900 nM
